One data set can be described thus: physchem. The following applies: pH 7.8. As to the method: The n-octanol/water apparent partition coefficient at the isoelectric point (or distribution constant) was measured by using the traditional shake-flask technique. The pH of the aqueous buffer was first adjusted to isoelectric point of the compound. The n-octanol and aqueous phases were then mutually saturated before the measurement. […] The samples were agitated for 5h at water bath shaker thermostatized at 25 ± 1^◦C and 100 rpm. The concentration of the solute was determined in the aqueous and organic phases at the isoelectric point by UV spectroscopy the log p value was calculated as follows: […].

The next data set relates to S. aureus (ATCC 6538). Description: Antibacterial MIC, standard agar cup diffusion method. The class given is cell-based, Staphylococcus aureus. The following applies: Staphylococcus aureus, ATCC6538, 37 °C, 24 h, read-out: MIC S. aureus (Gram-positive). The protocol:
(§1) The antibacterial and antifungal activities of compounds, ketone 1, 2a-j, and 5a-i were evaluated in vitro against S. aureus (ATCC 6538), P. aeruginosa (ATCC 10,145), E. coli (ATCC 8739), and C. albicans (ATCC 10,231). […] Standard strains of Staphylococcus aureus (ATCC 6538), Pseudomonas aeruginosa (ATCC 10,145), and Escherichia coli (ATCC 8739) were obtained from microbiological resource center, Faculty of Agriculture, Ain Shams University, Cairo, Egypt. All isolates were maintained at -70 °C in Trypticase Soya Broth (TSB, Becton, and Dickinson) with 10% glycerol. Prior to inoculation, all isolates were subcultured at 37 °C for 24 h on Trypticase Soya Agar (TSA, Becton, and Dickinson) and TSB, respectively.
(§2) The plates were rotated slowly to ensure uniform distribution of the microorganisms and then allowed to solidify on a flat surface. After solidification, four equidistant and circular wells of 10 mm diameter were carefully punched using a sterile cork bore. Twofold serial dilutions of the tested compounds using DMSO were performed. An equal volume of 100µL of each dilution was applied separately to each well in three replicates using a micropipette. All plates were incubated at 37 °C for 24 h. The inhibition zones were measured, and their average was calculated.

In a further data set the test system is E. coli (ATCC 8739). The description is as above. In kind it is cell-based. To be noted: Escherichia coli, ATCC8739, 37 °C, 24 h, read-out: MIC E. coli (Gram-negative). The protocol:
as §1, §2

The subject of data set [1] is P. aeruginosa (ATCC 10,145). Described as above. To be noted: Pseudomonas aeruginosa, ATCC 10145, 37 °C, 24 h, read-out: MIC P. aeruginosa (Gram-negative). In kind it is cell-based. The protocol: as §1, §2
In data set [2] the test system is C. albicans (ATCC 10,231). Description: Antifungal MIC, agar cup diffusion method. To be noted: Sabouraud agar, 37 °C; for MIC: Candida albicans, ATCC 10,231, 24 h, read-out: MIC C. albicans (Fungi); for MIC C. albicans (Fungi): 24 h. The class given is cell-based, Candida albicans. The protocol:
The antibacterial and antifungal activities of compounds, ketone 1, 2a-j, and 5a-i were evaluated in vitro against S. aureus (ATCC 6538), P. aeruginosa (ATCC 10,145), E. coli (ATCC 8739), and C. albicans (ATCC 10,231). […] The antifungal activity of compounds 1, 2a-j, and 5a-i and ketoconazole were determined according to the agar cup diffusion method at Deraya University, Faculty of Pharmacy, Department of Microbiology.
Fungal strains and culture conditions. […] Standard strain of Candida albicans (ATCC 10,231) was obtained from microbiological resource center, Faculty of Agriculture, Ain Shams University, Cairo, Egypt. The isolate was maintained at -70 °C in Trypticase Soya Broth (TSB, Becton, and Dickinson) with 10% glycerol. Prior to inoculation, the isolate was subcultured at 37 °C for 24 h on Trypticase Soya Agar (TSA, Becton, and Dickinson) and TSB, respectively.
as §2

Data set [3] can be described thus: Solubility determination in phosphate buffer. To be noted: aqueous buffer, thermodynamic from solid. The class given is physicochemical. As to the method: A sample of drug was accurately weighed and dissolved in 100 ml of distilled water to prepare 100 mcg/ml stock solutions. Appropriate dilution of the stock solution with phosphate buffer pH 6.8 and 7.8 was then made to prepare a working solution of 40mcg/ml.
After determination of λ max of drug, a calibration curve was constructed by preparing solutions containing different concentrations of (1–5 mcg/ml) from stock solution after appropriate dilution with phosphate buffer pH 6.8. The UV absorbance of the prepared sample solutions were measured at the predetermined λ max using phosphate buffer pH 6.8 as a blank.
Aqueous solubility of the complexes was measured as a function of pH. An excess of each derivative was placed into suitable stoppered containers. […] The samples were immersed in a water bath thermostatized at 37 ± 1^◦C and 100 rpm and periodically shaken for 48 h. Once the equilibrium was reached, the pH of the supernatant was regarded.

In a further data set the target is S. aureus DNA gyrase (Staphylococcus aureus, UniProt P0A0K8+P20831). The data set can be described thus: Staphylococcus aureus DNA gyrase supercoiling assay. The class given is biochemical. To be noted: supercoiling of relaxed pBR322, 37 °C, 30 min; read-out: S. aureus DNA gyrase IC50 ± SD. As to the method:
As antibacterial agents, fluoroquinolones act by targeting and inhibiting DNA gyrase (topo II) which is an essential enzyme involved in the DNA replication process.
Staphylococcus aureus DNA gyrase was incubated at 37 °C for 30 min in a total reaction volume of 30 μl containing 40 mM HEPES. KOH (pH 7.6), 10 mM magnesium acetate, 10 mM DTT, 2 mM ATP, 500 mM potassium glutamate, 0.05 mg/ml albumin and Relaxed pBR322. DNA gyrase supercoiling reactions catalyzed by S. aureus gyrase, Stop reaction by adding 30 μL of STEB and 30 μL of chloroform/isoamyl alcohol (v:v, 24:1),and then Vortex briefly ~ 5 secs and centrifuge for 1 min. after which 20 µL of this was loaded on a 1% agarose gel that was then run at ~ 75 V for approximately 2 h. The gel was stained by (0.5 mg/L) ethidium bromide in water. Fluorescent images were taken at a wavelength of 300 nm on a UV transilluminator imaging system. The fluorescence intensity of the supercoiled plasmid reaction product was quantitated using ImagQuant software (Molecular Dynamics).

Setting [4] is: phosphate buffer pH 6.8, 37 °C, read-out: Solubility pH 6.8.
[5] abbreviates: phosphate buffer pH 7.8, 37 °C, read-out: Solubility pH 7.8.

Consider seven compounds from publication PMC10415461 (Molecular Diversity, 2022).

Converted amounts (≈) assume the structure as drawn. Like-named read-outs stand apart in the source and are kept apart here.

By MIC is commonly meant the smallest concentration in the dilution series that meets the test's criterion for growth inhibition. As a reminder, the solubility is the dissolved amount per volume that the medium holds. In general, logD refers to lipophilicity at a set pH, counting ionised and neutral species. A low value points to a more hydrophilic compound. One may read the IC50 as the concentration needed to halve the response being measured. Broadly, the melting point is the temperature, or range, at which the solid turns liquid.

Chain of S. aureus DNA gyrase (P20831 whole entry): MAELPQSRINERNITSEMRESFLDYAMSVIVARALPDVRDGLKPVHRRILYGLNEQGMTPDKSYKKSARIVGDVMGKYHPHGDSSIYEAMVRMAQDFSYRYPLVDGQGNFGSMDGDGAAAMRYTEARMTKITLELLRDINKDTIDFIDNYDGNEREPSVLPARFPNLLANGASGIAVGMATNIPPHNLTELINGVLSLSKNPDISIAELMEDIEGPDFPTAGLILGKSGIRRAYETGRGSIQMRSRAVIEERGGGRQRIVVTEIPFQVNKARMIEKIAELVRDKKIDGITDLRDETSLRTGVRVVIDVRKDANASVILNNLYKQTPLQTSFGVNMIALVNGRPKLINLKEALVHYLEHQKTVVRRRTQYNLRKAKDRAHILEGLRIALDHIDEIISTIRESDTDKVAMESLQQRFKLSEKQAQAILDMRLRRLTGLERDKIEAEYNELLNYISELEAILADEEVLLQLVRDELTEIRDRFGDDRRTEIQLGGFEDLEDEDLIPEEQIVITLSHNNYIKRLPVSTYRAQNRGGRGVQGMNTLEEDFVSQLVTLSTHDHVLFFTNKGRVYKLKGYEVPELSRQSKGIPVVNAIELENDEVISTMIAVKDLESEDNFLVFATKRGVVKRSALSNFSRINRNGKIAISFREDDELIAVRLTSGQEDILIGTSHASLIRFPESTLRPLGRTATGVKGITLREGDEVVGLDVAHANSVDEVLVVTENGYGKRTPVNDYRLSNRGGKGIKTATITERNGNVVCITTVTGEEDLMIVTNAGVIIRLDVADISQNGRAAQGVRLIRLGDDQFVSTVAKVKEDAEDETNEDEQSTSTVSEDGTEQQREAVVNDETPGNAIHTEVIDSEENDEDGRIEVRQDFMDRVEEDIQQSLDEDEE
Chain of S. aureus DNA gyrase (P0A0K8 whole entry): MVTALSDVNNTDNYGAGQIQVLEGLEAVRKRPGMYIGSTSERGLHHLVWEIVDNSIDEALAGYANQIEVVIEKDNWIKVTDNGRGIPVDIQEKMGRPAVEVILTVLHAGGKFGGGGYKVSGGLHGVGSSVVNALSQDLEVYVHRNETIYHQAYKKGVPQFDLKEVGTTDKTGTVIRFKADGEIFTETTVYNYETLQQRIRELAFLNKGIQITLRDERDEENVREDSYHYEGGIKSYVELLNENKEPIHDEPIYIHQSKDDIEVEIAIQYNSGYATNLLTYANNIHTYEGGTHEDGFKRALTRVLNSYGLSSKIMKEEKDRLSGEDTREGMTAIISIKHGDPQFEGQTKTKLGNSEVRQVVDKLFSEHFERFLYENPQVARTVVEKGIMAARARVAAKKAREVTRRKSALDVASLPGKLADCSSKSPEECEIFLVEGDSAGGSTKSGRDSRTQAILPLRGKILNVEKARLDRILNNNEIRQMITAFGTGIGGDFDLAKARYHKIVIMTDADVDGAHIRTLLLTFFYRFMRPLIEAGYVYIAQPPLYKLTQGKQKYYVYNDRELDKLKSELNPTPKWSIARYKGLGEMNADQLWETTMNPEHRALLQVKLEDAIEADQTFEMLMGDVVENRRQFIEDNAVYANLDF

Regarding `CN(C)c1ccc(/C=C/C(=O)c2ccc(NC(=O)N3CCN(c4cc5c(cc4F)c(=O)c(C(=O)O)cn5C4CC4)CC3)cc2)cc1` [Compound 2h], the “Lipophilicity (log p)” value in “physchem” was “− 0.21”. Also, the MIC with S. aureus (ATCC 6538) stood at 1.2 mg/L (≈ 1.92 µM); in the data set with E. coli (ATCC 8739) it was 5.25 mg/L (≈ 8.42 µM); in data set [1], 3.12 mg/L (≈ 5.01 µM); in data set [2], 84.2 mg/L (≈ 135 µM). Further, the solubility at 48 h in data set [3] (setting [4]) was determined as 0.68 mg/mL (≈ 1090 µM); in data set [3] (setting [5]) it was 0.78 mg/mL (≈ 1250 µM).
As for `COc1ccc(/C=C/C(=O)c2ccc(NC(=O)N3CCN(c4cc5c(cc4F)c(=O)c(C(=O)O)cn5C4CC4)CC3)cc2)cc1OC` [Compound 2i], the “Lipophilicity (log p)” value in the data set “physchem” is recorded as “− 0.06”. For the same compound, the MIC with S. aureus (ATCC 6538) is 6.3 mg/L (≈ 9.83 µM); with E. coli (ATCC 8739), 4.13 mg/L (≈ 6.45 µM); in data set [1], 17 mg/L (≈ 26.5 µM); in data set [2], greater than 100 mg/L. Also, the results for the solubility at 48 h in data set [3] (setting [4]) and in data set [3] (setting [5]) were 0.15 mg/mL (≈ 234 µM) and 0.19 mg/mL (≈ 297 µM), respectively.
`COc1cc(/C=C/C(=O)c2ccc(NC(=O)N3CCN(c4cc5c(cc4F)c(=O)c(C(=O)O)cn5C4CC4)CC3)cc2)cc(OC)c1OC` [Compound 2j]: in the data set “physchem”, the logD was 0.34. Moreover, the minimum inhibitory concentration (MIC) in the data set with S. aureus (ATCC 6538) was 1.48 mg/L (≈ 2.21 µM); in the data set with E. coli (ATCC 8739), 5.13 mg/L (≈ 7.65 µM); in data set [1] it was 4.2 mg/L (≈ 6.26 µM); in data set [2], greater than 100 mg/L. For the same compound, the solubility at 48 h in data set [3] (setting [4]) was 0.18 mg/mL (≈ 268 µM); in data set [3] (setting [5]), 0.15 mg/mL (≈ 224 µM).
Take `N#Cc1c(-c2ccc(Cl)cc2)nc(SCC(=O)N2CCN(c3cc4c(cc3F)c(=O)c(C(=O)O)cn4C3CC3)CC2)[nH]c1=O` [Compound 5c, 7-(4-(2-((4-(4-Chlorophenyl)-5-cyano-6-oxo-1,6-dihydropyrimidin-2-yl)thio)acetyl)piperazin-1-yl)-1-cyclopropyl-6-fluoro-4-oxo-1,4-dihydroquinoline-3-carboxylic acid]: the melting point fell in the range of 253 to 256 °C. Besides, on S. aureus DNA gyrase, the half-maximal inhibitory concentration (IC50) is 1.57 ± 0.08 µM. In addition, in the data set with S. aureus (ATCC 6538), the MIC worked out at 0.58 mg/L (≈ 0.913 µM). In addition, the minimum inhibitory concentration (MIC) with E. coli (ATCC 8739) was determined as 1.03 mg/L (≈ 1.62 µM). The minimum inhibitory concentration (MIC) in data set [1] was 2.04 mg/L (≈ 3.21 µM). In data set [2], the MIC fell in the range of 2.03 to 3.89 mg/L (≈ 3.2 to 6.13 µM) and the “MIC C. albicans (Fungi)” value worked out at 2.87 mg/L (≈ 4.52 µM).
In the case of `N#Cc1c(-c2ccc(Br)cc2)nc(SCC(=O)N2CCN(c3cc4c(cc3F)c(=O)c(C(=O)O)cn4C3CC3)CC2)[nH]c1=O` [Compound 5d, 7-(4-(2-((4-(4-Bromophenyl)-5-cyano-6-oxo-1,6-dihydropyrimidin-2-yl)thio)acetyl)piperazin-1-yl)-1-cyclopropyl-6-fluoro-4-oxo-1,4-dihydroquinoline-3-carboxylic acid], the melting point was in the range of 284 to 285 °C. The minimum inhibitory concentration (MIC) in the data set on S. aureus (ATCC 6538) was 8.14 mg/L (≈ 12 µM). For the same compound, the minimum inhibitory concentration (MIC) in the data set with E. coli (ATCC 8739) was found to be 42.2 mg/L (≈ 62.1 µM). Also, in data set [1], the MIC was 12.3 mg/L (≈ 18.1 µM). For the same compound, in data set [2], the MIC was found to be 36.1 mg/L (≈ 53.2 µM).
Take `N#Cc1c(-c2ccc(F)cc2)nc(SCC(=O)N2CCN(c3cc4c(cc3F)c(=O)c(C(=O)O)cn4C3CC3)CC2)[nH]c1=O` [Compound 5e, 7-(4-(2-((4-(4-Fluorophenyl)-5-cyano-6-oxo-1,6-dihydropyrimidin-2-yl)thio)acetyl)piperazin-1-yl)-1-cyclopropyl-6-fluoro-4-oxo-1,4-dihydroquinoline-3-carboxylic acid]: the melting point lay within 242 to 245 °C. For the same compound, on S. aureus DNA gyrase, the IC50 was 1.01 ± 0.05 µM. Moreover, the MIC in the data set on S. aureus (ATCC 6538) turned out to be 0.78 mg/L (≈ 1.26 µM). In addition, the MIC with E. coli (ATCC 8739) amounted to 0.52 mg/L (≈ 0.841 µM). Besides, the MIC in data set [1] worked out at 3.25 mg/L (≈ 5.25 µM). Also, in data set [2], the MIC is 2.03 to 3.89 mg/L (≈ 3.28 to 6.29 µM) and the “MIC C. albicans (Fungi)” value came to 2.51 mg/L (≈ 4.06 µM).
On to `CC(=O)N1CCN(c2ccc(OCC3COC(Cn4ccnc4)(c4ccc(Cl)cc4Cl)O3)cc2)CC1` (centres unmarked) [Ketoconazole, reference compound], for which, in data set [2], the MIC amounted to 2.6 mg/L (≈ 4.89 µM).
